Laboratory results: US20230102192A1, “THERAPIES FOR THE TREATMENT OF DISEASES AND DISORDERS ASSOCIATED WITH ABNORMAL EXPRESSION OF A NEURAL-ASSOCIATED GENE” (The Regents of the University of California, priority 2020, published 2023)
“Also recorded” adds a separate entry of the source. Like-named read-outs stand apart in the source and are kept apart here.

Legend:
[1] = cited from earlier work
[2] = test system: MECP2-mosaic (CTR/KO) neurospheres; assay: MEA analysis of neurospheres; format: cell-based, human; settings: 1 μM, after 5 weeks of treatment, vs CTR/KO untreated
Description: (§1) Multi-electrode array (MEA) analysis. MEA analyses of neurons and cortical organoids were performed as described in Nageshappa et al. (Mol. Psychiatry 21:178-188 (2016)). Briefly, 3D neurosphere cultures of NPC derivation were plated on dual-chamber MEA; spontaneous spike activity was evaluated with the MED64 System (Panasonic). Glutamatergic (AP5, NBQX), GABAergic (Gabazine), and gap channel (Mefloquine) antagonism were used to check neuronal activity. After measurement, neurons were immunostained to check morphology and density. Recorded spikes were analyzed with the software Neuroexplorer (Nex Technologies, Madison, Ala., USA). For cortical organoids, 1-month organoids were plated on MEA plates and recordings were collected with a Maestro MEA system and AxIS Software Spontaneous Neural Configuration (Axion Biosystems, Atlanta, Ga., USA) using a customized script. The plate rested in the machine for three minutes followed by four minutes of recording. Axion Biosystems' Neural Metrics Tool classified electrodes with at least 5 spikes/min as active. Bursts were identified using an inter-spike interval (ISI) threshold requiring a 5-spike minimum and 100 ms maximum ISI. […] The synchrony index was calculated using a 20 ms cross-correlogram synchrony window was used to determine the synchrony index. […]

[3] = test system: MECP2-KO neurons; assay: Calcium imaging of neurons; format: cell-based, human; settings: vs untreated KO
Description: Pharmacologic treatment. One-month old cortical organoids were treated for 1 mo with either Nefiracetam (10 μM) or PHA 543613 (10 μM) during media changes.
Calcium imaging. Calcium imaging was performed as described in Chailangkarn et al. Briefly, PSC-derived neuronal networks were lentivirally transduced with a Syn::RFP reporter construct. Cultures were washed with Krebs HEPES buffer and incubated with Fluo-4AM (Molecular Probes/Invitrogen, Carlsbad, Calif., USA). A Hamamatsu ORCA-ER digital camera (Hamamatsu Photonics, Japan) with 488 nm filter on an Olympus IX81 inverted fluorescence confocal microscope (Olympus Optical, Tokyo, Japan) acquired 5000 frames at 28 Hz in a 256×256 pixel region (100× magnification). Images were acquired with MetaMorph7.7 (MDS Analytical Technologies, Sunnyvale, Calif., USA) and analyzed with ImageJ and Matlab7.2 (Mathworks, Natick, Mass., USA). Syn::RFP+ neurons were selected following tetrodotoxin blockade of calcium transients. A 95th-percentile threshold of amplitude for calcium spikes was set for event detection; signal amplitude is presented as fluorescence change (ΔF/F) following background subtraction.

[4] = test system: MECP2-KO cortical organoids; assay: MEA electrophysiology of cortical organoids; format: cell-based, human; settings: 1 μM for one month, compared with control organoids
Description: as §1, with “recording.” for “recording. Axion Biosystems' Neural Metrics Tool classified electrodes with at least 5 spikes/min as active. Bursts were identified using an inter-spike interval (ISI) threshold requiring a 5-spike minimum and 100 ms maximum ISI.”
Nefiracetam and PHA 543613 rescue network activity in MECP2-KO cortical organoids. The therapeutic efficacy of Nefiracetam and PHA 543613 was evaluated with cortical organoids, a complex, three-dimensional human neurodevelopmental model that closely recapitulates aspects of human fetal neurodevelopment. […]

[5] = test system: MECP2-mosaic (CTR/KO) neurospheres; assay: Neurosphere size (diameter); format: cell-based, human; settings: 8-week MECP2-mosaic neurospheres, P=0.79
From the text: Nefiracetam and PHA 543613 increase activity in MECP2-mosaic neurospheres. Because MECP2 resides on the X chromosome, random X-inactivation in females can produce a genetic pattern of mosaicism, with consequent phenotypic gradation, in which some cells express the normal allele while others are mutant. Therefore, as the next stage to evaluate the two drug candidates, a neurosphere model of MECP2 mosaicism was developed to mimic the female RTT brain by combining different proportions of control and MECP2-KO NPCs (see FIG. 7A-C). […] Calcium transient frequency in MECP2-mosaic neurospheres was increased by treatment with Nefiracetam in isolation (1 μM, P<0.05) and when combined with PHA 543613 (10 μM, P<0.001; FIG. 7H), but calcium transient amplitude was unaffected by either compound (P=0.255; FIG. 7I). To investigate the impact of the drug treatments on the electrophysiological properties of the MECP2-mosaic model, neurospheres treated with 1 μM Nefiracetam, 1 μM PHA 543613, or both Nefiracetam and PHA 543613 were plated to perform MEA analysis. […] Because each drug conferred a benefit to MECP2-mosaic neurospheres, both Nefiracetam and PHA 543613 were retained for further evaluation in a more complex human neurodevelopmental model.

[6] = target: GABAA receptor; settings: read-out: affinity for the GABAA receptor (IC50); cited from earlier work
[7] = test system: MECP2-KO neurons; assay: Nuclei size in neurons; format: cell-based, human; settings: vs KO untreated
[8] = in vivo, cited from earlier work

Cc1cccc(C)c1NC(=O)CN1CCCC1=O [Nefiracetam, nefiracetam]
toxicity during clinical trials ([1]; clinical trials): no evidence of toxicity | toxicity on long-term consumption ([1]; humans and primates): no toxicity | MEA overall spike count / spike frequency [2]: increased | frequency of calcium oscillations [3]: increases; also recorded: significantly increase | percentage of active neurons [3]: increase | population spiking (MEA) [4]: increased population spiking to a level not significantly different from that of control organoids | neurosphere diameter [5]: did not alter | IC50 [6]: 8.5 nM | nuclei size in neurons [7]: did not rescue

O=C(N[C@H]1CN2CCC1CC2)c1cc2ccoc2cn1 [PHA 543613, N-[(3R)-1-azabicyclo[2.2.2]oct-3-yl]furo[2,3-c]pyridine-5-carboxamide]
MEA overall spike count / spike frequency [2]: increased | frequency of calcium oscillations [3]: increases; also recorded: significantly increase | percentage of active neurons [3]: increase | population spiking (MEA) [4]: increased population spiking to a level not significantly different from that of control organoids | neurosphere diameter [5]: did not alter | nuclei size in neurons [7]: did not rescue | brain penetration [8]: rapid brain penetration | oral bioavailability [8]: high oral bioavailability | brain penetration ([8]; listed as PHA-543613): high level of brain penetration | oral bioavailability ([8]; listed as PHA-543613): good oral bioavailability
